In US20250170266A1 (ZYMEWORKS BC INC., priority 2022, published 2025):
Read-outs that look alike come from different tables or passages of the source.

What was measured:
Format in all cases: cell-based
[1] = biological target: T1, hTLR7 (Homo sapiens, UniProt Q9NYK1); test: Reporter Gene Assay (RGA), HEK-Blue hTLR7 reporter cells, SEAP readout; settings: overnight incubation, SEAP absorbance 620 nm
T1 construct: host or cells: HEK-Blue hTLR7 reporter cells (HEK293-derived, own knowledge)
T1 sequence (Q9NYK1 27-1049): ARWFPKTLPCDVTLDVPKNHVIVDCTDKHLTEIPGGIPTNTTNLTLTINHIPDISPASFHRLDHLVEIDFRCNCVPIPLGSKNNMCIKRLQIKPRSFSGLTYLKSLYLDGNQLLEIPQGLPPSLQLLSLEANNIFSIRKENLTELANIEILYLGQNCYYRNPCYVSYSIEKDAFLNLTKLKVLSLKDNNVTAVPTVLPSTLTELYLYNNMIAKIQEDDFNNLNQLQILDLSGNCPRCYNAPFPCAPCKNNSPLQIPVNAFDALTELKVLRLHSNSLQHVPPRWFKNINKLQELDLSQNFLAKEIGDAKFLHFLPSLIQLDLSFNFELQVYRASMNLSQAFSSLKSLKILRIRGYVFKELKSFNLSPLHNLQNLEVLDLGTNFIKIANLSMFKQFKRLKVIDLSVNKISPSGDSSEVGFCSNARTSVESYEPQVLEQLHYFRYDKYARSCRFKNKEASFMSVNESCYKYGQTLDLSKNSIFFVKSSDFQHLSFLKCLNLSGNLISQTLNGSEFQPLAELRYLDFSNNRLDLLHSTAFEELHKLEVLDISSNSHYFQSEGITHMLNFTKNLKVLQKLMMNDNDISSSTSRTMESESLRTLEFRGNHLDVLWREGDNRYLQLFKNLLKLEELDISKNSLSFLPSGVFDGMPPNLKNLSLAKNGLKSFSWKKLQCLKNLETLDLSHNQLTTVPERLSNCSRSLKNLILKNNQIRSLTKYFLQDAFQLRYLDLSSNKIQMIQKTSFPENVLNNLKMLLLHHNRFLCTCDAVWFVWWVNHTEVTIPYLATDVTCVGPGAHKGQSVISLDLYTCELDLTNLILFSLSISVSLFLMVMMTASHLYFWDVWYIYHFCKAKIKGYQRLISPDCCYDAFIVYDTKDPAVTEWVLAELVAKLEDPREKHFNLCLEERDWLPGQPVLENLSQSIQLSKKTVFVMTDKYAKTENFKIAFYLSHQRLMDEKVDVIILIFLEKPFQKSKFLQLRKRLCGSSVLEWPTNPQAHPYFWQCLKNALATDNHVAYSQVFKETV
Summary of the method: (§1)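 HEK-Blue reporter cells expressing human or mouse TLR7 (1.5×10^4 cells) were treated with an 11-point, 4-fold compound titration from 15 pM in HEK-Blue Detection medium. Incubation was overnight at 37° C with 5% CO2. Secreted embryonic alkaline phosphatase was read as absorbance at 620 nm.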

[2] = biological target: T2, mTLR7 (Mus musculus, UniProt P58681); test: Reporter Gene Assay (RGA), HEK-Blue mTLR7 reporter cells, SEAP readout; settings: overnight incubation, SEAP absorbance 620 nm
T2 construct: host or cells: HEK-Blue mTLR7 reporter cells (HEK293-derived, own knowledge)
T2 sequence (P58681 27-1050): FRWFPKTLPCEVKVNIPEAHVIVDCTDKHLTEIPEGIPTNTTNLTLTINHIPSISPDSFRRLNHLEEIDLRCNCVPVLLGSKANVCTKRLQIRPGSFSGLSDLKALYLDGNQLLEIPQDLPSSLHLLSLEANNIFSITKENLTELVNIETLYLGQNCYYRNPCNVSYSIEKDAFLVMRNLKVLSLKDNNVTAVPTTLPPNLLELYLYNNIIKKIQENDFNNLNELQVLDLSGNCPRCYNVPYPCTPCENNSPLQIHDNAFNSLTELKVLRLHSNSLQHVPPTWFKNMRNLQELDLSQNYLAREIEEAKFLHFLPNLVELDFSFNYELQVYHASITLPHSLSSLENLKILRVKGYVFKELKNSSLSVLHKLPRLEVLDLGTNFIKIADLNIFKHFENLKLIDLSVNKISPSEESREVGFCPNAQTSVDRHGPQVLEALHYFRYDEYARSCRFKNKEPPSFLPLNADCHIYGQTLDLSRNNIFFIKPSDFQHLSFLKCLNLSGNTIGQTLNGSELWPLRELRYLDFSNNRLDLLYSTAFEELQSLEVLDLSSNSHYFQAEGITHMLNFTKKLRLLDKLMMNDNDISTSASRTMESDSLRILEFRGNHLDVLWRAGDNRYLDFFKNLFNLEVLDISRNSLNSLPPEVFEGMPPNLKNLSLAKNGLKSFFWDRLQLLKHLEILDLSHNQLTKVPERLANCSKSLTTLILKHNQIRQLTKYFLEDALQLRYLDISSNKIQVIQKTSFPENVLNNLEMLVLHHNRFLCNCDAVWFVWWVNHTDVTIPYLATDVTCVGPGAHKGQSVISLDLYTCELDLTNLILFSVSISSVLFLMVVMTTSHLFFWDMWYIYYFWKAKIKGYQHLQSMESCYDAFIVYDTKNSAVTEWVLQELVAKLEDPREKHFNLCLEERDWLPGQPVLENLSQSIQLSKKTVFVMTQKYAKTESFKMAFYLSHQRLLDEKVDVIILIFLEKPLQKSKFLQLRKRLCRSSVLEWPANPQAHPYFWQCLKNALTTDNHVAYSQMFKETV
Summary of the method: as §1

[3] = system: Mouse splenocytes; test: Mouse Splenocyte Assay, cytokine release (HTRF); settings: Splenocyte, 24 hours, mIL6 in supernatant, read-out: Splenocyte IL6 EC50
Summary of the method: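 Splenocytes from female balb/c nude mice, thawed, 100,000 per well in RPMI + 10% FBS. Exposed for 24 h at 37 °C to a 4-fold 11-point compound titration from 15 μM; supernatant mIL6 and mTNFα measured by HTRF.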

[4] = system: Human peripheral blood mononuclear cells (PBMCs); test: Human PBMC Assay, cytokine release (HTRF); settings: 24 hours; for EC50: PBMC
Summary of the method: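 Cryopreserved human PBMCs, rested overnight with 10 ng/ml hIL3, then 300,000 cells/well treated 24 h at 37° C with compound (4-fold, 11-point titration from 15 μM) in RPMI+10% FBS. Supernatant hIL6, hTNFα and hIFNα measured by HTRF; growth medium as negative control.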

[5] = hIFNα in supernatant, EC50 values approximated and divided into groups, read-out: PBMC IFNa EC50
[6] = hIL6 in supernatant, read-out: PBMC IL6 EC50

## CCOc1nc(N)c2nc(O)n(Cc3ccc(CNCCCC[C@H](N)C(=O)O)cc3OC)c2n1 [Compound 114, N^6-(4-((6-amino-2-ethoxy-8-hydroxy-9H-purin-9-yl)methyl)-3-methoxybenzyl)-L-lysine]
[1]
  EC50: 261 nM
[2]
  EC50: 1520 nM
[3]
  EC50: 901 nM
[4]; [5]
  EC50: > 10 nM
[4]; [6]
  EC50: 1750 nM

## CCCN(CCC)Cc1ccc(Cn2c(O)nc3c(N)nc(OCC)nc32)c(OC)c1 [Compound 125, 6-amino-9-(4-((dipropylamino)methyl)-2-methoxybenzyl)-2-ethoxy-9H-purin-8-ol]
[1]
  EC50: 0.5 nM
[2]
  EC50: 4.3 nM
[3]
  EC50: 171 nM
[4]; [5]
  EC50: 1 to 10 nM
[4]; [6]
  EC50: 2230 nM

## CCOc1nc(N)c2nc(O)n(Cc3ccc(CNCc4ccccc4)cc3OC)c2n1 [Compound 107, 6-amino-9-(4-((benzylamino)methyl)-2-methoxybenzyl)-2-ethoxy-9H-purin-8-ol]
[1]
  EC50: 13 nM
[2]
  EC50: 0.3 nM
[3]
  EC50: 33.3 nM
[4]; [5]
  EC50: 0.1 to 1 nM
[4]; [6]
  EC50: 2720 nM

## CCCCOc1nc(N)c2nc(O)n(Cc3ccc(CCCN4CCC(CCN)CC4)cc3OC)c2n1 [Compound 175, 6-amino-9-(4-(3-(4-(2-aminoethyl)piperidin-1-yl)propyl)-2-methoxybenzyl)-2-butoxy-9H-purin-8-ol]
[1]
  EC50: < 0.1 nM
[2]
  EC50: < 0.1 nM
[3]
  EC50: 6 nM
[4]; hIL6 in supernatant
  PBMC IL6 EC50 (nM): inactive
[4]; [5]
  EC50: > 10 nM

## CCCCCNc1nc(N)c2nc(O)n(Cc3ccc(CNCc4ccc(CN)cc4)cc3)c2n1 [Compound 191, 6-amino-9-(4-(((4-(aminomethyl)benzyl)amino)methyl)benzyl)-2-(pentyl-amino)-9H-purin-8-ol]
[1]
  EC50: 29 nM
[2]
  EC50: 0.5 nM
[3]
  EC50: 45.9 nM
[4]; [5]
  EC50: < 0.1 nM

## CCCCCNc1nc(N)c2nc(O)n(Cc3ccc(CNCCN4CCNCC4)cc3)c2n1 [Compound 195, 6-amino-2-(pentylamino)-9-(4-(((2-(piperazin-1-yl)ethyl)amino)methyl)-benzyl)-9H-purin-8-ol]
[1]
  EC50: 1750 nM
[2]
  EC50: 127 nM
[3]
  EC50: 1000 nM
[4]; [6]
  EC50: 791 nM

## CCNCc1ccc(Cn2c(O)nc3c(N)nc(OCC)nc32)c(OC)c1 [Compound 124, 6-amino-2-ethoxy-9-(4-((ethylamino)methyl)-2-methoxybenzyl)-9H-purin-8-ol]
[1]
  EC50: 5.4 nM
[2]
  EC50: 33.5 nM
[3]
  EC50: 744 nM
[4]; [5]
  EC50: 0.1 to 1 nM
[4]; [6]
  EC50: 674 nM

## CCOc1nc(N)c2nc(O)n(Cc3ccc(CNCc4ccc(CN5CCNCC5)cc4)cc3OC)c2n1 [Compound 145, 6-amino-2-ethoxy-9-(2-methoxy-4-(((4-(piperazin-1-ylmethyl)benzyl)amino)-methyl)benzyl)-9H-purin-8-ol]
[1]
  EC50: 69 nM
[2]
  EC50: 142 nM
[3]
  EC50: 338 nM
[4]; [6]
  EC50: 126 nM

## CCOc1nc(N)c2nc(O)n(Cc3ccc(CN)cc3OC)c2n1 [Compound 123, 6-amino-9-(4-(aminomethyl)-2-methoxybenzyl)-2-ethoxy-9H-purin-8-ol]
[1]
  EC50: 30.7 nM
[2]
  EC50: 146 nM
[3]
  EC50: 145 nM
[4]; [5]
  EC50: 1 to 10 nM
[4]; [6]
  EC50: 684 nM

## CCOc1nc(N)c2nc(O)n(Cc3ccc(CN4CCC(N)CC4)cc3OC)c2n1 [Compound 110, 6-amino-9-(4-((4-aminopiperidin-1-yl)methyl)-2-methoxybenzyl)-2-ethoxy-9H-purin-8-ol]
[1]
  EC50: 112 nM
[2]
  EC50: 184 nM
[3]
  EC50: ≥ 1000 nM
[4]; [5]
  EC50: 1 to 10 nM
[4]; [6]
  EC50: 937 nM

## CCCCOc1nc(N)c2nc(O)n(Cc3ccc(CN4CCNCC4)cc3)c2n1 [Compound 166, 6-amino-2-butoxy-9-(4-(piperazin-1-ylmethyl)benzyl)-9H-purin-8-ol]
[1]
  EC50: < 0.1 nM
[2]
  EC50: 11 nM
[3]
  EC50: 150 nM
[4]; [5]
  EC50: > 10 nM
[4]; [6]
  EC50: 1570 nM

## CCCCCNc1nc(N)c2nc(O)n(Cc3ccc(CN4CCNCC4)cc3)c2n1 [Compound 187, 6-amino-2-(pentylamino)-9-(4-(piperazin-1-ylmethyl)benzyl)-9H-purin-8-ol]
[1]
  EC50: 94 nM
[2]
  EC50: 9 nM
[3]
  EC50: 131 nM
[4]; [5]
  EC50: 0.1 to 1 nM
[4]; [6]
  EC50: 9 nM

## CCOc1nc(N)c2nc(O)n(Cc3ccc(CNCCN4CCOCC4)cc3OC)c2n1 [Compound 135, 6-amino-2-ethoxy-9-(2-methoxy-4-(((2-morpholinoethyl)amino)methyl)benzyl)-9H-purin-8-ol]
[1]
  EC50: 13.3 nM
[2]
  EC50: 157 nM
[3]
  EC50: 137 nM
[4]; [5]
  EC50: 0.1 to 1 nM
[4]; [6]
  EC50: 42.3 nM

## CCCCCNc1nc(N)c2nc(O)n(Cc3ccc(CN(CC)CC)cc3)c2n1 [Compound 185, 6-amino-9-(4-((diethylamino)methyl)benzyl)-2-(pentylamino)-9H-purin-8-ol]
[1]
  EC50: 10 nM
[2]
  EC50: 1 nM
[3]
  EC50: 20.4 nM
[4]; [5]
  EC50: 1 to 10 nM
[4]; [6]
  EC50: 12.6 nM

## CCOc1nc(N)c2nc(O)n(Cc3ccc(CNCc4ccc(CN(CC(=O)O)CC(=O)O)cc4)cc3OC)c2n1 [Compound 151, 2,2′-((4-(((4-((6-amino-2-ethoxy-8-hydroxy-9H-purin-9-yl)methyl)-3-methoxy-benzyl)amino)methyl)benzyl)azanediyl)diacetic Acid]
[1]
  EC50: 12.1 nM
[2]
  EC50: 125 nM
[3]
  EC50: 68.8 nM
[4]; [5]
  EC50: > 10 nM
[4]; [6]
  EC50: 59.2 nM

## CCCCOc1nc(N)c2nc(O)n(Cc3ccc(N4CCC(N)CC4)cc3OC)c2n1 [Compound 170, 6-amino-9-(4-(4-aminopiperidin-1-yl)-2-methoxybenzyl)-2-butoxy-9H-purin-8-ol]
[1]
  EC50: 1 nM
[2]
  EC50: 2 nM
[3]
  EC50: 51.7 nM
[4]; [5]
  EC50: > 10 nM
[4]; [6]
  EC50: 1470 nM

## CCOc1nc(N)c2nc(O)n(Cc3ccc(CNCc4ccc(CN5CCC(N)CC5)cc4)cc3OC)c2n1 [Compound 144, 6-amino-9-(4-(((4-((4-aminopiperidin-1-yl)methyl)benzyl)amino)methyl)-2-methoxybenzyl)-2-ethoxy-9H-purin-8-ol]
[1]
  EC50: 79.5 nM
[2]
  EC50: 1330 nM
[3]
  EC50: 372 nM
[4]; [5]
  EC50: > 10 nM
[4]; [6]
  EC50: 191 nM
